Assay results published in paper PMC2972656 (Bioorganic & medicinal chemistry, 2010).
Structures can show the parent of a compound that is named as a salt.

Key:
α1β3γ2 GABAA/BzR [1] = target: T1, α1β3γ2 GABAA/BzR (Homo sapiens, UniProt P14867+P18507); test: [3H]flunitrazepam competition binding, α1β3γ2; details: for selectivity for the α1β3γ2 subtype: enantiomeric sec-butyl esters
BzR = test: Binding to BzR, overall statement; parameters: species or system human; details: Boc protection at position-9
other receptors = test: NIMH supported PDSP screen; type: binding
α1β3γ2 GABAA/BzR [2] = target: T1, α1β3γ2 GABAA/BzR; details: binding; cited from earlier work
[3] = system: alcohol preferring (P) rats; details: 15–60 mg/kg, comparable with chlordiazepoxide; cited from earlier work
α2β3γ2 GABAA/BzR = α2β3γ2 GABAA/BzR (Homo sapiens, UniProt P18507+P47869); test: [3H]flunitrazepam competition binding, α2β3γ2
α5β3γ2 GABAA/BzR = α5β3γ2 GABAA/BzR (Homo sapiens, UniProt P18507+P31644); test: [3H]flunitrazepam competition binding, α5β3γ2

c1ccc(COc2cc3c4ccccc4nc-3c[nH]2)cc1 [compound 35, 3-benzyloxy β-carboline]
Ki (α1β3γ2 GABAA/BzR [1]): 830 nM

C[C@@H](OC(=O)c1cc2c(cn1)[nH]c1ccccc12)C(F)(F)F [compound 22, (R)-1,1,1-Trifluoroisopropyl β-carboline-3-carboxylate]
selectivity for α1 isoforms over α5 isoforms (α1β3γ2 GABAA/BzR [1]; binding): ~70 fold

C#Cc1ccc2c(c1)c1cc(C(=O)OC(C)(C)C)ncc1n2C(=O)OC(C)(C)C [compound 40]
binding to BzR (BzR): did not bind to BzR at all

CC(C)(C)OC(=O)c1cc2c3cc(I)ccc3n(C(=O)OC(C)(C)C)c2cn1 [compound 41]
binding to BzR (BzR): did not bind to BzR at all

CCCOc1cc2c(cn1)[nH]c1ccccc12 [2(3-PBC), 3-propoxy-β-carboline hydrochloride]
interactions at other receptors (other receptors): neither βCCT, 3PBC, nor WYS8 exhibited significant interactions at other receptors | selectivity for the α1 site over the α5 subtype (α1β3γ2 GABAA/BzR [2]): over 150 fold | selectivity for the α1 subtype over the α2 and α3 receptors (α1β3γ2 GABAA/BzR [2]): 10 fold | effects in the plus maze [3]: anxiolytic effects

CC[C@@H](C)OC(=O)c1cc2c(cn1)[nH]c1ccccc12 [compound 24, (R)-β-Carboline-3-carboxylic acid sec-butyl ester]
selectivity for the α1β3γ2 subtype (α1β3γ2 GABAA/BzR [1]; binding): ~4 fold | Ki (α2β3γ2 GABAA/BzR): 32.5 nM

C#Cc1ccc2[nH]c3cnc(C(=O)OC(C)(C)C)cc3c2c1 [7(WYS8), 6-Ethynl-9H-β-carboline-3-carboxylic acid t-butyl ester]
interactions at other receptors (other receptors): neither βCCT, 3PBC, nor WYS8 exhibited significant interactions at other receptors

CC(C)COc1cc2c(cn1)[nH]c1ccccc12 [compound 37]
Ki (α5β3γ2 GABAA/BzR): ≥ 1000 nM

CC[C@H](C)OC(=O)c1cc2c(cn1)[nH]c1ccccc12 [compound 23, (S)-β-Carboline-3-carboxylic acid sec-butyl ester]
selectivity for the α1β3γ2 subtype (α1β3γ2 GABAA/BzR [1]; binding): ~4 fold | Ki (α5β3γ2 GABAA/BzR): 1440 nM
